Measured values taken from US9120815B2, “Solid state forms of macrocyclic kinase inhibitors” (Tragara Pharmaceuticals, Inc., priority 2010, dated 2015).
Entries after “also recorded” stand apart in the source; their conditions may differ.

Tests used:
Assay type in all cases: physicochemical
[1] = Stability in humidity chamber 40° C./75% R.H. (XRPD, HPLC); settings: 2 weeks
Method: After 2 days, the solids were isolated by filtration under vacuum at RT to be characterised by XRPD analysis. Each new crystalline solid phase detected was characterised by ^1H NMR and TGA-DSC analyses in order to determine if salt formation had occurred and whether the material was a solvate. At this stage, each salt identified was then analysed by HPLC to determine the chemical purity prior to being stored in the humidity chamber (40° C./75% R.H.) to assess its stability.

[2] = Gravimetric Vapour Sorption (GVS) at 25° C.; settings: citrate
Method: Sorption isotherms were obtained using a SMS DVS Intrinsic moisture sorption analyser, controlled by SMS Analysis Suite software. The sample temperature was maintained at 25° C. by the instrument controls. The humidity was controlled by mixing streams of dry and wet nitrogen, with a total flow rate of 200 ml.min^−1. The relative humidity was measured by a calibrated Rotronic probe (dynamic range of 1.0-100% RH), located near the sample. The weight change, (mass relaxation) of the sample as a function of % RH was constantly monitored by the microbalance (accuracy ±0.005 mg). Typically 5-20 mg of sample was placed in a tared mesh stainless steel basket under ambient conditions. The sample was loaded and unloaded at 40% RH and 25° C. (typical room conditions). A moisture sorption isotherm was performed as outlined below (2 scans giving 1 complete cycle). The standard isotherm was performed at 25° C. at 10% RH intervals over a 0.5-90% RH range. The sample was recovered after completion of the isotherm and re-analysed by XRPD.

[3] = Polymorph screen: maturation in solvents, XRPD; settings: for XPRD Characterisation after maturation: 3 days
Method: An initial polymorphism screen was performed for the fumarate and citrate salts using 10 common class II and III organic solvents (with and without addition of water), plus pure water. […] The samples were subjected to a series of heat/cool cycles (room temp […], 8 hour cycles). After 3 days, the samples were filtered and the solids were characterised by XRPD analysis.

[4] = Stability study: rate of hydration of anhydrous polymorph in methocel/Tween 80 test medium, XRPD; settings: for Time points where transformation was observed: no seeds
Method: Test medium was prepared by dissolving methocel (4 g) in water (196 mL) to afford a 2% (w/w) solution. After stirring for 12 hours to ensure a homogenous solution is obtained, Tween 80 (800 mg) and water (600 mL) was added and the mixture stirred for an additional 12 hours to homogenise.
Test medium (30 mL) was added and each sample was maturated at the indicated temperature and condition (−20° C., 4° C., room temperature with stirring and room temperature without stirring). […] The samples were monitored over time by XRPD to determine the rate of hydration of the anhydrous polymorph.
Test medium (5 mL) was added and each sample was maturated at the indicated temperature and condition (−20° C., 4° C., room temperature with stirring and room temperature without stirring). […] The samples were monitored over time by XRPD to determine the rate of hydration of the anhydrous polymorph.

[5] = Thermodynamic aqueous solubility
Method: Aqueous solubility was determined by suspending sufficient compound in water to give a maximum final concentration of 210 mg·ml^−1 of the parent free-form of the compound. The suspension was equilibrated at 25° C. for 24 hours then the pH was measured. The suspension was then filtered through a glass fibre C filter into a 96 well plate. The filtrate was then diluted by a factor of 101. Quantitation was by HPLC with reference to a standard solution of approximately 0.1 mg·ml^−1. in DMSO. Different volumes of the standard, diluted and undiluted sample solutions were injected. The solubility was calculated using the peak areas determined by integration of the peak found at the same retention time as the principal peak in the standard injection.
Analysis was performed on an Agilent HP1 100 series system equipped with a diode array detector and using ChemStation software vB.02.01-SR1.

[6] = Solid state stability at ambient conditions

**Q.** Which “XPRD stability after 40° C./75% RH 2 weeks” value ([1]; besylate) does the source give for `CN1CC=CCCOc2cccc(c2)C2=CC=NC(=Nc3cccc(c3)C1)N2.O=S(=O)(O)c1ccccc1` [Besylate Pattern 1, 14-methyl-20-oxa-5,7,14,27-tetraazatetracyclo-[19.3.1.12,6.18,12]heptacosa-1(25),2,4,6,8,10,12(26),16,21,23-decaene besylate] here?
**A.** stable

**Q.** And the “XPRD stability after 40° C./75% RH 2 weeks” value ([1]; listed as Besylate pattern 1, besylate)?
**A.** No change

**Q.** Which “changes in the XRPD pattern after the GVS experiment” value [2] does the source give for `CN1CC=CCCOc2cccc(c2)C2=CC=NC(=Nc3cccc(c3)C1)N2.O=C(O)CC(O)(CC(=O)O)C(=O)O` [Citrate Pattern 1, 14-methyl-20-oxa-5,7,14,27-tetraazatetracyclo-[19.3.1.12,6.18,12]heptacosa-1(25),2,4,6,8,10,12(26),16,21,23-decaene citrate] here?
**A.** no transformation; also recorded: between 0 and 90% relative humidity. No

**Q.** What about the “XPRD Characterisation after maturation” value ([3]; Acetone, w/ water (5% v/v)) of the same compound?
**A.** Citrate Pattern 1

**Q.** And the “XPRD Characterisation after maturation” value ([3]; Acetone, w/o water)?
**A.** Citrate Pattern 1

**Q.** And the “XPRD Characterisation after maturation” value ([3]; Acetonitrile, w/ water (5% v/v))?
**A.** Citrate Pattern 2

**Q.** And the “XPRD Characterisation after maturation” value ([3]; Acetonitrile, w/o water)?
**A.** Citrate Pattern 1

**Q.** And the “XPRD Characterisation after maturation” value ([3]; DCM, w/ water (5% v/v))?
**A.** Citrate Pattern 3

**Q.** What about the “XPRD Characterisation after maturation” value ([3]; DCM, w/o water, RT-50° C. cycles) of the same compound?
**A.** Citrate Pattern 1

**Q.** What about the “XPRD Characterisation after maturation” value ([3]; EtOH, w/ water (5% v/v)) of the same compound?
**A.** Citrate Pattern 1

**Q.** And the “XPRD Characterisation after maturation” value ([3]; EtOH, w/o water)?
**A.** Citrate Pattern 1

**Q.** And the “XPRD Characterisation after maturation” value ([3]; Ethyl acetate, w/ water (5% v/v))?
**A.** Citrate Pattern 2

**Q.** What about the “XPRD Characterisation after maturation” value ([3]; Ethyl acetate, w/o water) of the same compound?
**A.** Citrate Pattern 1

**Q.** What about the “XPRD Characterisation after maturation” value ([3]; IPA, w/ water (5% v/v)) of the same compound?
**A.** Citrate Pattern 1

**Q.** What about the “XPRD Characterisation after maturation” value ([3]; IPA, w/o water) of the same compound?
**A.** Citrate Pattern 1

**Q.** And the “XPRD Characterisation after maturation” value ([3]; TBME, w/ water (5% v/v))?
**A.** Citrate Pattern 2

**Q.** What about the “XPRD Characterisation after maturation” value ([3]; TBME, w/o water) of the same compound?
**A.** Citrate Pattern 1

**Q.** And the “XPRD Characterisation after maturation” value ([3]; THF, w/ water (5% v/v))?
**A.** Citrate Pattern 2

**Q.** What about the “XPRD Characterisation after maturation” value ([3]; THF, w/o water) of the same compound?
**A.** Citrate Pattern 1

**Q.** And the “XPRD Characterisation after maturation” value ([3]; Toluene, w/ water (5% v/v))?
**A.** Citrate Pattern 2

**Q.** What about the “XPRD Characterisation after maturation” value ([3]; Toluene, w/o water) of the same compound?
**A.** Citrate Pattern 1

**Q.** And the “transformation after 3 days of maturation in dried solvents” value ([3]; dried solvents)?
**A.** No transformation

**Q.** And the “XPRD Characterisation after maturation” value ([3]; nitromethane, w/ water (5% v/v))?
**A.** Citrate Pattern 2

**Q.** And the “XPRD Characterisation after maturation” value ([3]; nitromethane, w/o water)?
**A.** Citrate Pattern 1

**Q.** What about the “XPRD Characterisation after maturation” value ([3]; pure water) of the same compound?
**A.** Citrate Pattern 2

**Q.** And the kinetics of hydration ([4]; comparison of citrate and fumarate salts)?
**A.** slower than for the fumarate salt

**Q.** And the “Time points where transformation was observed” value ([4]; 1 mg/mL, 4° C.)?
**A.** No

**Q.** What about the “Time points where transformation was observed” value ([4]; 1 mg/mL, 20-25° C. (under stirring)) of the same compound?
**A.** 120 h

**Q.** And the “Time points where transformation was observed” value ([4]; 1 mg/mL, 20-25° C. (without stirring))?
**A.** Clear Solution

**Q.** What about the “Time points where transformation was observed” value ([4]; 1 mg/mL, −20° C.) of the same compound?
**A.** No

**Q.** What about the “Time points where transformation was observed” value ([4]; 10 mg/mL, 4° C.) of the same compound?
**A.** No

**Q.** What about the “Time points where transformation was observed” value ([4]; 10 mg/mL, 20-25° C. (under stirring)) of the same compound?
**A.** 48 h

**Q.** And the “Time points where transformation was observed” value ([4]; 10 mg/mL, 20-25° C. (without stirring))?
**A.** No conversion

**Q.** And the “Time points where transformation was observed” value ([4]; 10 mg/mL, −20° C.)?
**A.** No

**Q.** What about the “XPRD stability after 40° C./75% RH 2 weeks” value ([1]; citrate) of the same compound?
**A.** not sensitive to humidity; also recorded: no transformation; also recorded: crystallinity, and no change was observed after

**Q.** What about the “XPRD stability after 40° C./75% RH 2 weeks” value ([1]; listed as Citrate pattern 1, citrate) of the same compound?
**A.** No change

**Q.** And the solubility at 24 h ([5]; 25 °C, thermodynamic from solid, water)?
**A.** 160 µg/mL

**Q.** And the “final pH” value ([5]; pH of the aqueous suspension after equilibration)?
**A.** 3.94

**Q.** What about the aqueous solubility ([5]; water, 25° C., 24 hours) of the same compound?
**A.** 160 µg/mL

**Q.** And the “stability in the solid state” value [6]?
**A.** stable

**Q.** For `CN1CC=CCCOc2cccc(c2)C2=CC=NC(=Nc3cccc(c3)C1)N2.O=C(O)/C=C/C(=O)O` [Fumarate Pattern 1, 14-methyl-20-oxa-5,7,14,27-tetraazatetracyclo-[19.3.1.12,6.18,12]heptacosa-1(25),2,4,6,8,10,12(26),16,21,23-decaene fumarate], which “XPRD stability after 40° C./75% RH 2 weeks” value ([1]; listed as Fumarate pattern 1, fumarate) is on record?
**A.** No change
